Data from ChEMBL document CHEMBL5523746, “Discovery of Novel Peptide Antagonists Targeting GPR55 for Liver Inflammation and Fibrosis” (2024).
The source made the active and inactive calls. Bridge positions count the residues as written; N and C are the ends. Peptide text beside a SMILES is read from it.

Tests used:
Assay type in all cases: functional, organism-based
Mus musculus [1] = assay: In vivo anti-fibrotic activity against methionine and choline-deficient (MCD) diet-induced liver fibrosis C57BL/6J mouse model assessed as reduction in inflammation by measuring decrease in Ly6G inflammation marker at 150 to 300 microg/kg once daily for 3 weeks by IHC staining based assay; conditions: dose 150-300 µg/kg
Mus musculus [2] = assay: In vivo anti-fibrotic activity against CCl4-induced liver fibrosis C57BL/6J mouse model assessed as decrease in pro-apoptotic protein CHOP level at 300 microg/kg once daily for 3 weeks by Western blot analysis; conditions: dose 300.0 µg/kg
Mus musculus [3] = assay: In vivo anti-fibrotic activity against methionine and choline-deficient (MCD) diet-induced liver fibrosis C57BL/6J mouse model assessed as reduction in oxidative stress by measuring increase in catalase at 150 to 300 microg/kg once daily for 3 weeks by enzyme activity assay; conditions: dose 150-300 µg/kg
Mus musculus [4] = assay: In vivo anti-fibrotic activity against methionine and choline-deficient (MCD) diet-induced liver fibrosis C57BL/6J mouse model assessed as reduction in oxidative stress by measuring increase in superoxide dismutase at 150 to 300 microg/kg once daily for 3 weeks by enzyme activity assay; conditions: dose 150-300 µg/kg
Mus musculus [5] = assay: In vivo anti-fibrotic activity against methionine and choline-deficient (MCD) diet-induced liver fibrosis C57BL/6J mouse model assessed as decrease in inflammatory infiltration and collagen deposition at 150 to 300 microg/kg once daily for 3 weeks by ORO staining based assay; conditions: dose 150-300 µg/kg
Mus musculus [6] = assay: Reduction in fatty acid synthesis related gene expression in methionine and choline-deficient (MCD) diet-induced liver C57BL/6J fibrosis mouse model assessed as reduction in FATP1 mRNA level at 150 to 300 microg/kg once daily for 3 weeks by qPCR analysis; conditions: dose 150-300 µg/kg
Mus musculus [7] = assay: In vivo anti-fibrotic activity against CCl4-induced liver fibrosis C57BL/6J mouse model assessed as reduction in ROS treated once daily for 3 weeks by RT-qPCR analysis; conditions: dose 150-300 µg/kg
Mus musculus [8] = assay: In vivo anti-fibrotic activity against CCl4-induced liver fibrosis C57BL/6J mouse model assessed as reduction in hepatocyte apoptosis at 300 microg/kg once daily for 3 weeks by TUNEL assay; conditions: dose 300.0 µg/kg
Mus musculus [9] = assay: In vivo anti-fibrotic activity against methionine and choline-deficient (MCD) diet-induced liver fibrosis C57BL/6J mouse model assessed as reduction in oxidative stress by measuring decrease in lipid oxidation product MDA at 150 to 300 microg/kg once daily for 3 weeks by enzyme activity assay; conditions: dose 150-300 µg/kg
Mus musculus [10] = assay: In vivo anti-fibrotic activity against CCl4-induced liver fibrosis C57BL/6J mouse model assessed as liver function by measuring decrease in serum hydroxyproline (HYP) at 150 to 300 microg/kg once daily for 3 weeks by bio-chemical analysis; conditions: dose 150-300 µg/kg
Mus musculus [11] = assay: In vivo anti-fibrotic activity against CCl4-induced liver fibrosis C57BL/6J mouse model assessed as liver function by measuring decrease in hydroxyproline (HYP) at 150 to 300 microg/kg once daily for 3 weeks by Western blot analysis; conditions: dose 150-300 µg/kg
Mus musculus [12] = assay: In vivo anti-fibrotic activity against CCl4-induced liver fibrosis C57BL/6J mouse model assessed as reduction in oxidative stress by measuring decrease in lipid oxidation product MDA at 150 to 300 microg/kg once daily for 3 weeks by enzyme activity assay; conditions: dose 150-300 µg/kg
Mus musculus [13] = assay: Induction of fatty acid beta-oxidation related gene expression in methionine and choline-deficient (MCD) diet-induced liver fibrosis C57BL/6J mouse model assessed as increase in ACOX mRNA level at 150 to 300 microg/kg once daily for 3 weeks by qPCR analysis; conditions: dose 150-300 µg/kg
Mus musculus [14] = assay: In vivo anti-fibrotic activity against CCl4-induced liver fibrosis C57BL/6J mouse model assessed as reduction in oxidative stress by measuring increase in superoxide dismutase at 150 to 300 microg/kg once daily for 3 weeks by enzyme activity assay; conditions: dose 150-300 µg/kg

Measured: Activity

CC[C@H](C)[C@@H]1NC(=O)[C@H]([C@@H](C)O)NC(=O)[C@@H]2CCCN2C(=O)[C@H](CO)NC(=O)[C@H](CC(N)=O)NC(=O)[C@H](CCCCN)NC(=O)[C@H](CCCCN)NC(=O)[C@@H](N)CSSC[C@@H](C(=O)O)NC1=O (H-CKKNSPTIC-OH; disulfide 1-9)
active: Mus musculus [1] | Mus musculus [2] | Mus musculus [3] | Mus musculus [4] | Mus musculus [5] | Mus musculus [6] | Mus musculus [7] | Mus musculus [8] | Mus musculus [9] | Mus musculus [10] | Mus musculus [11] | Mus musculus [12] | Mus musculus [13] | Mus musculus [14]
